These results are taken from article PMC10924156, “Design, Preclinical Evaluation, and Clinical Translation of ^68Ga-FAPI-LM3, a Heterobivalent Molecule for PET Imaging of Nasopharyngeal Carcinoma” (Journal of Nuclear Medicine, 2024).

A short description of one series: Small-animal PET imaging. Particulars: BALB/c nude, mouse, tumor (HT-1080-FAP plus HT-1080-SSTR2 xenograft), iv, 7.4 MBq, total radioactivity, tumor uptake (PET), i.v. approx 7.4 MBq, 3 mice/group.
Details of series [1]: method as in 2 sources, ref 21 = [21]; PMID 30072500; doi:10.2967/jnumed.118.215913; 21. Giesel FL Kratochwil C Lindner T . 68 Ga-FAPI PET/CT: biodistribution and preliminary dosimetry estimate of 2 DOTA-containing FAP-targeting agents in patients with various cancers . J Nucl Med. 20 ||| ref 15 = [15]; PMID 33579804; doi:10.2967/jnumed.120.253096; 15. Zhu W Cheng Y Jia R . A prospective, randomized, double-blind study to evaluate the safety, biodistribution, and dosimetry of 68 Ga-NODAGA-LM3 and 68 Ga-DOTA-LM3 in patients with well-differentiat. Particulars: in vivo; cited from earlier work.

Series [2] is described as follows: Ex vivo biodistribution study. Particulars: BALB/c nude, mouse, tumor (HT-1080-FAP plus HT-1080-SSTR2 xenograft), 1.48 MBq, total radioactivity.
Experimental: (§1) Tumor-bearing mice (3/group) were intravenously injected with approximately 7.4 MBq of ^68Ga-FAPI-LM3, ^68Ga-FAPI-46, or ^68Ga-DOTA-LM3. Subsequent static PET scans were obtained at intervals of 0.5, 1, 2, and 4 h after injection using an Inveon small-animal PET scanner (Siemens). In the blocking experiment, approximately 60 nmol of the unlabeled precursor (FAPI-46, DOTA-LM3, or FAPI-46 plus DOTA-LM3) were simultaneously injected with ^68Ga-FAPI-LM3. The PET images were reconstructed iteratively using 3-dimensional OpMAP 256 (PET reconstruction protocol [.pPetRcn]; Siemens Healthineers AG) and converted to percentage injected dose per gram of tissue (%ID/g) by delineating the regions of interest. For the biodistribution studies, approximately 1.48 MBq of ^68Ga-FAPI-LM3, ^68Ga-FAPI-46, ^68Ga-DOTA-LM3, or ^68Ga-FAPI-LM3 with unlabeled precursor were injected into tumor-bearing mice (3/group), and different groups of mice were euthanized at the scheduled time points after injection.

Positions of bridges follow the written chain, without caps; N, C: chain ends. Non-standard residues stand in square brackets, D forms with d. Residues, ends and D or L forms follow the SMILES beside them. *: point of attachment. DOTA = O=C(O)CN1CCN(CC(=O)O)CCN(CC(=O)*)CCN(CC(=O)O)CC1; dPhe(4-NHCONH2) = NC(=O)Nc1ccc(C[C@@H](N)C(=O)O)cc1; Phe(4-Cl) = N[C@@H](Cc1ccc(Cl)cc1)C(=O)O

By tissue uptake is commonly meant the percentage of the injected dose found per gram of tissue.

Experimental for Small-animal PET imaging: as §1

Take `C[C@@H](O)[C@@H]1NC(=O)[C@H](CCCCN)NC(=O)[C@@H](Cc2ccc(NC(N)=O)cc2)NC(=O)[C@H](Cc2ccc(O)cc2)NC(=O)[C@H](NC(=O)[C@H](Cc2ccc(Cl)cc2)NC(=O)CN2CCN(CC(=O)O)CCN(CC(=O)O)CCN(CC(=O)O)CC2)CSSC[C@@H](C(=O)N[C@H](Cc2ccc(O)cc2)C(N)=O)NC1=O` [^68Ga-DOTA-LM3, metal not drawn, reference compound] ({DOTA}-[Phe(4-Cl)][dC]Y[dPhe(4-NHCONH2)]KTC[dY]-NH2; disulfide 2-7): the tissue uptake at 1 h in the series “Small-animal PET imaging” (1 h after injection) is 5.93 ± 0.5 %ID/g; in series [2], 7.88 ± 1.1 %ID/g. Also, the tissue uptake at 4 h in “Small-animal PET imaging” (4 h after injection) is 4.46 ± 0.57 %ID/g. Moreover, the effective dose in series [1] is on record as 2.50 × 10^−2 mSv/MBq.
